#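 Test compounds were applied to cells in 96-well plates for 48 hours at 5 doses. Abbreviation: GI50, concentration required for 50% inhibition of growth. TGI is the concentration that stops growth completely.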
# Experiments:
# Experiment in all cases: DTP human tumour cell line panel, 48 h
# IGROV1 ovarian = tested on: IGROV1 ovarian
# NCI-H522 lung = tested on: NCI-H522 lung
# SNB-75 CNS = tested on: SNB-75 CNS
# PC-3 prostate = tested on: PC-3 prostate
# BT-549 breast = tested on: BT-549 breast
# SF-268 CNS = tested on: SF-268 CNS
# NCI-H460 lung = tested on: NCI-H460 lung
# UACC-257 melanoma = tested on: UACC-257 melanoma
# MCF7 breast = tested on: MCF7 breast
# LOX IMVI melanoma = tested on: LOX IMVI melanoma
# UACC-62 melanoma = tested on: UACC-62 melanoma
# SF-295 CNS = tested on: SF-295 CNS
# OVCAR-8 ovarian = tested on: OVCAR-8 ovarian
# HOP-92 NSCLC = tested on: HOP-92 NSCLC
# HT29 colon = tested on: HT29 colon
# HOP-62 NSCLC = tested on: HOP-62 NSCLC
# OVCAR-3 ovarian = tested on: OVCAR-3 ovarian
# MDA-MB-435 = tested on: MDA-MB-435
# MALME-3M melanoma = tested on: MALME-3M melanoma
# A549 NSCLC = tested on: A549 NSCLC
# SK-OV-3 ovarian = tested on: SK-OV-3 ovarian
# CCRF-CEM leukemia = tested on: CCRF-CEM leukemia
# HCT-116 colon = tested on: HCT-116 colon
# SW-620 colon = tested on: SW-620 colon
# NCI-H226 lung = tested on: NCI-H226 lung
# SK-MEL-28 melanoma = tested on: SK-MEL-28 melanoma
# T-47D breast = tested on: T-47D breast
# EKVX NSCLC = tested on: EKVX NSCLC
# SF-539 CNS = tested on: SF-539 CNS
# OVCAR-4 ovarian = tested on: OVCAR-4 ovarian
# COLO 205 colon = tested on: COLO 205 colon
# SK-MEL-2 melanoma = tested on: SK-MEL-2 melanoma
# K-562 leukemia = tested on: K-562 leukemia
# HS 578T breast = tested on: HS 578T breast
# KM12 colon = tested on: KM12 colon
# HCC-2998 colon = tested on: HCC-2998 colon
# RPMI-8226 leukemia = tested on: RPMI-8226 leukemia
# M14 melanoma = tested on: M14 melanoma
# TK-10 renal = tested on: TK-10 renal
# U251 CNS = tested on: U251 CNS
# HL-60(TB) leukemia = tested on: HL-60(TB) leukemia
# DU-145 prostate = tested on: DU-145 prostate
# HCT-15 colon = tested on: HCT-15 colon
# SK-MEL-5 melanoma = tested on: SK-MEL-5 melanoma
# SN12C renal = tested on: SN12C renal
# MDA-MB-468 breast = tested on: MDA-MB-468 breast
# NCI/ADR-RES ovarian = tested on: NCI/ADR-RES ovarian
# A498 renal = tested on: A498 renal
# MOLT-4 leukemia = tested on: MOLT-4 leukemia
# NCI-H23 lung = tested on: NCI-H23 lung
# RXF 393 renal = tested on: RXF 393 renal
# ACHN renal = tested on: ACHN renal
# OVCAR-5 ovarian = tested on: OVCAR-5 ovarian
# 786-0 renal = tested on: 786-0 renal
# SNB-19 CNS = tested on: SNB-19 CNS
# CAKI-1 renal = tested on: CAKI-1 renal
smiles,measurement,setting,value
Cc1cc(C)cc(Oc2cccc(-c3c(C)nnn3C3CCN(CCN(C)C)CC3)n2)c1,GI50,IGROV1 ovarian,5.15 µM
same,TGI,IGROV1 ovarian,18.7 µM
same,GI50,NCI-H522 lung,1.23 µM
same,TGI,NCI-H522 lung,4.41 µM
same,GI50,SNB-75 CNS,0.59 µM
same,TGI,SNB-75 CNS,8.53 µM
same,GI50,PC-3 prostate,2.07 µM
same,TGI,PC-3 prostate,17.2 µM
same,GI50,BT-549 breast,1.67 µM
same,TGI,BT-549 breast,3.65 µM
same,GI50,SF-268 CNS,4.56 µM
same,TGI,SF-268 CNS,20.1 µM
same,GI50,NCI-H460 lung,2.45 µM
same,TGI,NCI-H460 lung,13.1 µM
same,GI50,UACC-257 melanoma,1.48 µM
same,TGI,UACC-257 melanoma,15.8 µM
same,GI50,MCF7 breast,0.715 µM
same,TGI,MCF7 breast,12.3 µM
same,GI50,LOX IMVI melanoma,1.28 µM
same,TGI,LOX IMVI melanoma,7.21 µM
same,GI50,UACC-62 melanoma,0.554 µM
same,TGI,UACC-62 melanoma,5.24 µM
same,GI50,SF-295 CNS,4.72 µM
same,TGI,SF-295 CNS,19.4 µM
same,GI50,OVCAR-8 ovarian,1.88 µM
same,TGI,OVCAR-8 ovarian,13.7 µM
same,GI50,HOP-92 NSCLC,0.455 µM
same,TGI,HOP-92 NSCLC,15.4 µM
same,GI50,HT29 colon,0.742 µM
same,TGI,HT29 colon,5.54 µM
same,GI50,HOP-62 NSCLC,1.13 µM
same,TGI,HOP-62 NSCLC,12.9 µM
same,GI50,OVCAR-3 ovarian,1.66 µM
same,TGI,OVCAR-3 ovarian,6.66 µM
same,GI50,MDA-MB-435,1.6 µM
same,TGI,MDA-MB-435,14.3 µM
same,GI50,MALME-3M melanoma,2.08 µM
same,TGI,MALME-3M melanoma,13.7 µM
same,GI50,A549 NSCLC,1.46 µM
same,TGI,A549 NSCLC,12.9 µM
same,GI50,SK-OV-3 ovarian,0.893 µM
same,TGI,SK-OV-3 ovarian,3.52 µM
same,GI50,CCRF-CEM leukemia,0.951 µM
same,TGI,CCRF-CEM leukemia,5.13 µM
same,GI50,HCT-116 colon,1.41 µM
same,TGI,HCT-116 colon,10.1 µM
same,GI50,SW-620 colon,2.73 µM
same,TGI,SW-620 colon,16.2 µM
same,GI50,NCI-H226 lung,2.44 µM
same,TGI,NCI-H226 lung,17.2 µM
same,GI50,SK-MEL-28 melanoma,3.9 µM
same,TGI,SK-MEL-28 melanoma,18.7 µM
same,GI50,T-47D breast,2 µM
same,TGI,T-47D breast,24.3 µM
same,GI50,EKVX NSCLC,4.8 µM
same,TGI,EKVX NSCLC,21.1 µM
same,GI50,SF-539 CNS,1.71 µM
same,TGI,SF-539 CNS,8.22 µM
same,GI50,OVCAR-4 ovarian,3.1 µM
same,TGI,OVCAR-4 ovarian,21 µM
same,GI50,COLO 205 colon,0.632 µM
same,TGI,COLO 205 colon,10.8 µM
same,GI50,SK-MEL-2 melanoma,2.4 µM
same,TGI,SK-MEL-2 melanoma,12.5 µM
same,GI50,K-562 leukemia,0.671 µM
same,TGI,K-562 leukemia,6.82 µM
same,GI50,HS 578T breast,1.77 µM
same,TGI,HS 578T breast,9.43 µM
same,GI50,KM12 colon,2.72 µM
same,TGI,KM12 colon,16.6 µM
same,GI50,HCC-2998 colon,4.15 µM
same,TGI,HCC-2998 colon,17.8 µM
same,GI50,RPMI-8226 leukemia,0.378 µM
same,TGI,RPMI-8226 leukemia,2.78 µM
same,GI50,M14 melanoma,1.08 µM
same,TGI,M14 melanoma,11.5 µM
same,GI50,TK-10 renal,0.707 µM
same,TGI,TK-10 renal,13.1 µM
same,GI50,U251 CNS,3.16 µM
same,TGI,U251 CNS,15.3 µM
same,GI50,HL-60(TB) leukemia,0.134 µM
same,TGI,HL-60(TB) leukemia,1.18 µM
same,GI50,DU-145 prostate,12.3 µM
same,TGI,DU-145 prostate,34 µM
same,GI50,HCT-15 colon,1.41 µM
same,TGI,HCT-15 colon,11.2 µM
same,GI50,SK-MEL-5 melanoma,1.4 µM
same,TGI,SK-MEL-5 melanoma,4.95 µM
same,GI50,SN12C renal,4.27 µM
same,TGI,SN12C renal,18.6 µM
same,GI50,MDA-MB-468 breast,1.07 µM
same,TGI,MDA-MB-468 breast,3.73 µM
same,GI50,NCI/ADR-RES ovarian,2.63 µM
same,TGI,NCI/ADR-RES ovarian,14.3 µM
same,GI50,A498 renal,1.45 µM
same,TGI,A498 renal,7.52 µM
same,GI50,MOLT-4 leukemia,1.85 µM
same,TGI,MOLT-4 leukemia,6.74 µM
same,GI50,NCI-H23 lung,3.43 µM
same,TGI,NCI-H23 lung,16.1 µM
same,GI50,RXF 393 renal,3.52 µM
same,TGI,RXF 393 renal,12.6 µM
same,GI50,ACHN renal,2.01 µM
same,TGI,ACHN renal,15.7 µM
same,GI50,OVCAR-5 ovarian,3.61 µM
same,TGI,OVCAR-5 ovarian,22.1 µM
same,GI50,786-0 renal,0.939 µM
same,TGI,786-0 renal,3.89 µM
same,GI50,SNB-19 CNS,5.51 µM
same,TGI,SNB-19 CNS,20.8 µM
same,GI50,CAKI-1 renal,0.745 µM
same,TGI,CAKI-1 renal,15.6 µM

# Source: PubChem BioAssay (NCI)
